One data set deals with 5-HT2A receptor. Briefly: NIMH-PDSP binding screen. The note with it: 10 μM.
The next data set has as its system 5-HT2C receptor. Briefly: NIMH-PDSP binding screen. As to conditions: 10 μM.
For a further data set, the system named is κ-opiate receptor. Briefly: NIMH-PDSP binding screen. As to conditions: 10 μM.
Another data set deals with σ1 receptor (Cavia porcellus, UniProt Q60492). As to the kind of experiment: NIMH-PDSP binding screen. The note with it: read-out: inhibition of binding.
Another data set addresses T1, σ2 receptor (Rattus norvegicus, UniProt Q5U3Y7).
T1 sequence (Q5U3Y7 1-176): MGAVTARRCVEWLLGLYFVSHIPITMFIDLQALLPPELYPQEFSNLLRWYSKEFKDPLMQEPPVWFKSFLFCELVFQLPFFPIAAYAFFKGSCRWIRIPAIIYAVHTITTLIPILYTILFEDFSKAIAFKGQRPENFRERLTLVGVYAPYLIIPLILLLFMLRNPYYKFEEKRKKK
As to the kind of experiment: NIMH-PDSP binding screen.

Data set [1] is classed as in vivo, rhesus monkeys (Macaca mulatta). As to conditions: 1 mg/kg i.v. at 30 min after [^11C]3, DCPQ-treated monkeys.
Data set [2] relates to P-gp. As to conditions: monkey, DCPQ 8 mg/kg or 16 mg/kg i.v. before [^11C]3.
For data set [3] the following is noted: monkey, DCPQ 8 mg/kg i.v.
Data set [4] has as its system P-gp. As to conditions: P-gp knockout mouse brain; cited from earlier work.

The source of these data is PMC2646255 (Journal of medicinal chemistry, 2008).

Sequence of σ1 receptor (Q60492 whole entry): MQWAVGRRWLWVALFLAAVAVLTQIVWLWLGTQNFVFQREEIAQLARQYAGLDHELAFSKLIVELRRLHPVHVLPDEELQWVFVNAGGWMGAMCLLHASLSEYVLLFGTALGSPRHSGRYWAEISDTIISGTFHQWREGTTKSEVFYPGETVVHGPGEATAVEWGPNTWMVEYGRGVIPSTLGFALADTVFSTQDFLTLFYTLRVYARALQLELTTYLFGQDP

As to `CNC(=O)C(CCN1CCC(O)(c2ccc(Cl)cc2)CC1)(c1ccccc1)c1ccccc1` [Compound 3, 4-(4-(4-Chlorophenyl)-4-hydroxypiperidin-1-yl)-2,2-diphenyl-N-methyl-butanamide], the inhibition of binding in the data set on 5-HT2A receptor, in the data set on 5-HT2C receptor and in the data set with κ-opiate receptor was < 50% each time. Moreover, the inhibition at 10 µM on σ1 receptor and on σ2 receptor (read-out: inhibition of binding) was > 50% each time. Moreover, the Ki at σ2 receptor (Ki, σ2) is < 10 nM. For the same molecule, in [1], the “effect on washout of radioactivity from brain” value was “no discernible effect”.
`Cl.Cl.Cl.O[C@@H](COc1cccc2ncccc12)CN1CCN(C2c3ccccc3C3C(c4ccccc42)C3(Cl)Cl)CC1` (stereo partly drawn) [DCPQ, (2R)-anti-5-{3-[4-(10,11-dichloromethanodibenzo-suber-5-yl)piperazin-1-yl]-2-hydroxypropoxy}quinoline trihydrochloride, reference compound]: the “effect on uptake of radioactivity into pituitary” value with P-gp [2] is recorded as “no effect”. In addition, in data set [3], the “effect on rate at which each radiometabolite emerged in plasma” value is “little effect”.
Consider `CN([11CH3])C(=O)C(CCN1CCC(O)(c2ccc(Cl)cc2)CC1)(c1ccccc1)c1ccccc1` [[^11C]loperamide], for which the “unchanged radiotracer as share of radioactivity in brain” value in the data set on P-gp [4] is ~ 50%.
Turning to `CN(C)C(=O)C(CCN1CCC(O)(c2ccc(Cl)cc2)CC1)(c1ccccc1)c1ccccc1` [loperamide, reference compound], the “effect on washout of radioactivity from brain” value in data set [1] is recorded as “no discernible effect”.

For orientation: inhibition means how much of the control response was suppressed. In general, Ki refers to a measure of affinity in units of concentration, obtained from inhibition or displacement. High values mean lower affinity, low ones higher affinity.
